Measured values published in patent US20100222269A1, “IMPROVED DERIVATIVES OF AMYLIN” (priority 2007, published 2010).
pEC50: −log10 of the molar value. Starred links: 1 amine or outer side, 2 acyl side, 3 side chain; linkers in the order of their positions; H or OH if unused. Positions of bridges follow the written chain, without caps; N, C: chain ends. Residues, ends and D or L forms follow the SMILES beside them. Groups on a side chain read outwards from the residue. *: point of attachment. C20 diacid = O=C(O)CCCCCCCCCCCCCCCCCCC(=O)*; γGlu = O=C(O)[C@H](CCC(=O)[*:2])N[*:1]; AEEA = NCCOCCOCC(=O)O

Biological target: T1, Amylin 3(a) receptor (human calcitonin receptor (CTa) with RAMP-3) (Homo sapiens, UniProt O60896+P30988)
T1 construct: expressed in transfected cells; host or cells: BHK570 (baby hamster kidney) cells, stably transfected, with CRE-luciferase reporter
Assay: Amylin luciferase assay (CRE-luciferase reporter in BHK Amylin 3(a)//CRE-luc cells)
Type: cell-based
Conditions: BHK570 cells with human calcitonin receptor (CTa), RAMP-3 and CRE-luciferase reporter; 4 hours incubation; read-out: Potency luciferase assay
Summary of the method: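 BHK570 cells stably expressing human calcitonin receptor (CTa), RAMP-3 and a CRE-luciferase reporter, about 20.000 cells/well, were exposed to standard or sample for 4 h at 37° C in phenol-red-free DMEM with 10% FBS and 10 mM Hepes pH 7,4. Luminescence was read after 30 min with LucLite at room temperature.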

T1 sequence (O60896 24-148): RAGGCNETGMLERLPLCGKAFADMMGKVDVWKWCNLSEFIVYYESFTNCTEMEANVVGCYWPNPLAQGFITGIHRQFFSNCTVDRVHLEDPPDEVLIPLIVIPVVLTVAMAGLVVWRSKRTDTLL
T1 sequence (P30988 25-474): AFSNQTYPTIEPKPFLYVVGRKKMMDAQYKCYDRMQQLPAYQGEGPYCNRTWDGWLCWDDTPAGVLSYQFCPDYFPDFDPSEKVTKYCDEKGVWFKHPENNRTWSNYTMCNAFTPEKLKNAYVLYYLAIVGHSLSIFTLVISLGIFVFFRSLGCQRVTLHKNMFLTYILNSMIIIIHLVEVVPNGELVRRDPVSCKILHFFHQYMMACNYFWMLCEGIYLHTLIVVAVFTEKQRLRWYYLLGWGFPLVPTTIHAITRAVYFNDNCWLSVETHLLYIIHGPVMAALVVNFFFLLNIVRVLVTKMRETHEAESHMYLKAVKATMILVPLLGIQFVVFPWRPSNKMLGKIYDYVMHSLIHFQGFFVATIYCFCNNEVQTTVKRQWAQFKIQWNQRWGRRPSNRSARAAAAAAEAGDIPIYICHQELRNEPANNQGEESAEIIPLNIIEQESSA

CC[C@H](C)[C@H](NC(=O)[C@@H]1CCCN1C(=O)CNC(=O)[C@H](Cc1ccccc1)NC(=O)[C@H](CC(N)=O)NC(=O)[C@H](CC(N)=O)NC(=O)[C@H](CO)NC(=O)[C@H](CO)NC(=O)[C@H](Cc1c[nH]cn1)NC(=O)[C@@H](NC(=O)[C@H](CC(C)C)NC(=O)[C@H](Cc1ccccc1)NC(=O)[C@H](CC(N)=O)NC(=O)[C@H](C)NC(=O)[C@H](CC(C)C)NC(=O)[C@H](CCCNC(=N)N)NC(=O)[C@H](CCC(N)=O)NC(=O)[C@@H](NC(=O)[C@H](C)NC(=O)[C@@H]1CSSC[C@H](NC(=O)[C@H](CCCNC(=N)N)NC(=O)CC[C@H](NC(=O)CCCCCCCCCCCCCCCCCCC(=O)O)C(=O)O)C(=O)N[C@@H](CC(N)=O)C(=O)N[C@@H]([C@@H](C)O)C(=O)N[C@@H](C)C(=O)N[C@@H]([C@@H](C)O)C(=O)N1)[C@@H](C)O)C(C)C)C(=O)N[C@@H](CC(C)C)C(=O)N1CCC[C@H]1C(=O)N1CCC[C@H]1C(=O)N[C@H](C(=O)N[C@@H](CC(N)=O)C(=O)N[C@H](C(=O)NCC(=O)N[C@@H](CO)C(=O)N[C@@H](CC(N)=O)C(=O)N[C@H](C(=O)N[C@@H](Cc1ccc(O)cc1)C(N)=O)[C@@H](C)O)C(C)C)[C@@H](C)O [Example 45, N-alpha-[(S)-4-carboxy-4-(19-carboxynonadecanoylamino)butyryl]-[Arg1]-pramlintide (1-37)] ({C20 diacid-γGlu}-RCNTATCATQRLANFLVHSSNNFGPILPPTNVGSNTY-NH2; disulfide 2-7; C-terminus assumed)
pEC50: 10.40

CC[C@H](C)[C@H](NC(=O)[C@@H]1CCCN1C(=O)CNC(=O)[C@H](Cc1ccccc1)NC(=O)[C@H](CC(N)=O)NC(=O)[C@H](CC(N)=O)NC(=O)[C@H](CO)NC(=O)[C@H](CO)NC(=O)[C@H](Cc1c[nH]cn1)NC(=O)[C@@H](NC(=O)[C@H](CC(C)C)NC(=O)[C@H](Cc1ccccc1)NC(=O)[C@H](CC(N)=O)NC(=O)[C@H](C)NC(=O)[C@H](CC(C)C)NC(=O)[C@H](CCCNC(=N)N)NC(=O)[C@H](CCC(N)=O)NC(=O)[C@@H](NC(=O)[C@H](C)NC(=O)[C@@H]1CSSC[C@H](NC(=O)[C@@H](N)CCCCN)C(=O)N[C@@H](CCCCNC(=O)COCCOCCNC(=O)COCCOCCNC(=O)CCCCCCCCCCCCCCCCCCC(=O)O)C(=O)N[C@@H]([C@@H](C)O)C(=O)N[C@@H](C)C(=O)N[C@@H]([C@@H](C)O)C(=O)N1)[C@@H](C)O)C(C)C)C(=O)N[C@@H](CC(C)C)C(=O)N1CCC[C@H]1C(=O)N1CCC[C@H]1C(=O)N[C@H](C(=O)N[C@@H](CC(N)=O)C(=O)N[C@H](C(=O)NCC(=O)N[C@@H](CO)C(=O)N[C@@H](CC(N)=O)C(=O)N[C@H](C(=O)N[C@@H](Cc1ccc(O)cc1)C(N)=O)[C@@H](C)O)C(C)C)[C@@H](C)O [Example 13, N-epsilon3-(2-{2-[2-(2-{2-[2-(19-carboxynonadecanoylamino)ethoxy]ethoxy}acetylamino)ethoxy]ethoxy}acetyl)-[Lys3]-pramlintide (1-37)] (H-KCK([AEEA-AEEA-C20 diacid])TATCATQRLANFLVHSSNNFGPILPPTNVGSNTY-NH2; disulfide 2-7; N-terminus assumed)
pEC50: 10.22
